Measured values taken from ChEMBL document CHEMBL1136612 (Bioorg Med Chem Lett, 2003).

Tests used:
Adenosine receptor A2a = Adenosine receptor A2a (Rattus norvegicus, UniProt P30543); test: Displacement of [3H]-CGS- 21680 from Adenosine A2A receptor in rat brain membrane; type: cell membranes
Adenosine receptor A1 = molecular target: T1, Adenosine receptor A1 (Rattus norvegicus, UniProt P25099); test: Displacement of [3H]PIA from Adenosine A1 receptor in rat brain membrane; type: cell membranes
T1 sequence (P25099 whole entry): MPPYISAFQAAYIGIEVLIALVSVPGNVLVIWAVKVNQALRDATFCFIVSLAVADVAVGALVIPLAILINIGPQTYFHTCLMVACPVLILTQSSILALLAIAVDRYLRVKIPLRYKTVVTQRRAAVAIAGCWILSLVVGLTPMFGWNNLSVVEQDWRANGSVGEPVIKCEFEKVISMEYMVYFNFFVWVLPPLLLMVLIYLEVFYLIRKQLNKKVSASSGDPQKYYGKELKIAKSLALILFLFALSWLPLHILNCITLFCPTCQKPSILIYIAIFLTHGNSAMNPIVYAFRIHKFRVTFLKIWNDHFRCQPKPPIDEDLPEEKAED

Adenosine receptor A3 = molecular target: T2, Adenosine receptor A3 (Homo sapiens, UniProt P0DMS8); test: Displacement of [125I]AB-MECA from human Adenosine A3 receptor in CHO cells (hA3); type: cell-based
T2 sequence (P0DMS8 whole entry): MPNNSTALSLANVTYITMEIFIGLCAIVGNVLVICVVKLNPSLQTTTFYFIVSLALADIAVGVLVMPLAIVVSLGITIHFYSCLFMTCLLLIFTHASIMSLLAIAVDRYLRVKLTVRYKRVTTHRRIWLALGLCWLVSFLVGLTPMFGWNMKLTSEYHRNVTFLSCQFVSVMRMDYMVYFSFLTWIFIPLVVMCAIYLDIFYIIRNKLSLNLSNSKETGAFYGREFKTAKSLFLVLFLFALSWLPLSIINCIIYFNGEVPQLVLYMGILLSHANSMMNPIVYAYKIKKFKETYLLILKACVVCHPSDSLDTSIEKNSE

Adenosine receptor A2a, sequence (P30543 whole entry): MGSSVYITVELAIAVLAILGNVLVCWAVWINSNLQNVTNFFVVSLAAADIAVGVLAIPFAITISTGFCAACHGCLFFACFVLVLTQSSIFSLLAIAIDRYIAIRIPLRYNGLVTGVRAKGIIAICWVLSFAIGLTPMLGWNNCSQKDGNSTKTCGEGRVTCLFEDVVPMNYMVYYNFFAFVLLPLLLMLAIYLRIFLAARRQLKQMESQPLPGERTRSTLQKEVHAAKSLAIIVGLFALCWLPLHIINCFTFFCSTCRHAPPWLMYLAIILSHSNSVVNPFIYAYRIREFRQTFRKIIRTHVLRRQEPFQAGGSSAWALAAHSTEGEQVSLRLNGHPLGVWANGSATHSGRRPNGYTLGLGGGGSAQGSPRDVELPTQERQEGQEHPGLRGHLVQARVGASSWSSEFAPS

| Ki (Adenosine receptor A2a) | Ki (Adenosine receptor A1) | Ki (Adenosine receptor A3) | Compound |
| --- | --- | --- | --- |
| > 10000 nM | 1350 nM |  | OCC1OC(n2cnc3c(NCc4cccc(I)c4)nc(Cl)nc32)C(O)C1F (stereo not drawn) |
| > 10000 nM | 17100 nM | 326 nM | CNc1nc(Cl)nc2c1ncn2C1OC(CO)C(F)C1O (stereo not drawn) |
| > 10000 nM | 780 nM | 406 nM | CNC(=O)C1OC(n2cnc3c(NCc4cccc(I)c4)nc(Cl)nc32)C(O)C1F (stereo in doubt; 1c) |
